Patent US9487551B2, “Small molecule compounds that control mammal-pathogenic nematodes” (California Institute of Technology, priority 2011, dated 2016)
“Also recorded” adds a separate entry of the source.

What was measured:
C. elegans [1] = experiment: Ascaroside function (Table 12); type: in vivo, Caenorhabditis elegans; parameters: key to Attract Females/Herm. / Promote Dauer Formation / Attract Males: A very strong result of affecting nematode behavior is designated in the table as “strong.”; settings: listed = has this function
Protocol: Various ascarosides and ascaroside blends were administered to various nematodes described below (Table 12). […] A very strong result of affecting nematode behavior is designated in the table as “strong.”

ASI sensory neurons = settings: in vivo; cited from earlier work
C. elegans [2] = experiment: Spot attraction assay; type: in vivo
Protocol: The spot attraction assays were conducted according to a previously reported method (Pungaliya et al., PNAS 106:7708-13 (2009); Srinivasan et al., Nature 454:1115-18 (2008), which are hereby incorporated by reference in their entirety). For both C. elegans hermaphrodites and males, 50-60 worms were harvested daily at the fourth larval stage (L4) and stored segregatedly by sex at 20° C. overnight, to be used as young adults the following day. For the competition experiments, two conditions were used: 120 nM ascr#3 and 10 nM icas#3 (Condition 1), or 12 μM ascr#3 and 1 μM icas#3 (Condition 2) in water containing 10% ethanol. Aliquots were stored at −20° C. in 20 μL tubes. 10% ethanol in water was used as control.
Attraction assays with hbas#3 were conducted as previously reported (Srinivasan et al., Nature 454:1115-18 (2008); Pungaliya et al., Proc. Natl. Acad. Sci. U.S.A. 106:7708-13 (2009), which are hereby incorporated by reference in their entirety). For the attraction assays, 50-60 hermaphrodite worms were harvested daily at the early fourth larval stage (L4) and stored at 20° C. overnight to be used as young adults the following day. Hbas#3 was dissolved in water containing 10% ethanol. Aliquots were stored at −20° C. in 20 μL tubes. 10% ethanol in water was used as control.

C. elegans [3] = experiment: Quadrant chemotaxis assay; type: in vivo; settings: for chemotaxis of hermaphrodites from all tested strains: 1 pM icas#3, except npr-1(ad609) for the blend
Protocol: Chemotaxis to both non-indole and indole ascarosides was assessed on 10 cm four-quadrant petri plates (Wicks et al., Dev. Biol. 221:295-307 (2000), which is hereby incorporated by reference in its entirety). Each quadrant was separated from adjacent ones by plastic spacers (FIG. 1B). Pairs of opposite quadrants were filled with nematode growth medium (NGM) agar containing either indole ascarosides or non-indole ascarosides at different concentrations. Animals were washed gently in a S-basal buffer, placed in the center of a four-quadrant plate with ascarosides in alternating quadrants, and scored after 15 minutes and 30 minutes. A chemotaxis index was calculated as: (the number of animals on ascaroside quadrants minus the number of animals on buffer quadrants)/(total number of animals).
Chemotaxis to hbas#3 was assessed on 10 cm four-quadrant petri plates (Wicks et al., Dev. Biol. 221:295-307 (2000), which is hereby incorporated by reference in its entirety). Each quadrant was separated from adjacent ones by plastic spacers. Pairs of opposite quadrants were filled with nematode growth medium (NGM) agar containing different concentrations of hbas#3. Animals were washed gently in an S-basal buffer and placed in the center of a four-quadrant plate with ascarosides in alternating quadrants, and scored after 15 minutes and 30 minutes. A chemotaxis index was calculated as: (the number of animals on ascaroside quadrants minus the number of animals on buffer quadrants)/(total number of animals).

C. elegans [4] = experiment: Aggregation assay; type: in vivo
Protocol: Aggregation behavior of worms was measured using assays reported in de Bono & Bargmann, Cell 94:679-89 (1998), which is hereby incorporated by reference in its entirety. Aggregation assays were conducted on standard NGM plates. Plates containing indole ascarosides were made by adding the indole ascaroside stock solution to the NGM media before they were poured onto the plates. These plates were dried at room temperature for 2 to 3 days. Control plates were treated similarly, except that ethanol solutions instead of icas solutions were added to the plates, corresponding to the amount of ethanol introduced via the icas solutions. Final ethanol concentrations of the plates were below 0.1% for all conditions. After drying, both control plates and plates containing indole ascarosides were seeded with 150 μl of an overnight culture of E. coli OP50 using a micropipette, and were allowed to dry for 2 days at room temperature. For “low worm density” experiments, 20 worms were placed onto the lawn and left at 20° C. for 3 hours. For “high worm density” experiments, approximately 120 worms were placed onto the bacterial lawn and left at 20° C. for 3 hours. Aggregation behavior was quantified as the number of animals that were in touch with two or more animals at greater than 50% of their body length.

C. elegans [5] = experiment: Measurement of locomotory parameters (automated worm-tracking); type: in vivo
Protocol: Reversal frequency and velocity were measured using an automated worm-tracking system (Pungaliya et al., PNAS 106:7708-13 (2009); Srinivasan et al., Nature 454:1115-18 (2008), which are hereby incorporated by reference in their entirety).

AIA interneurons = experiment: Calcium imaging (G-CaMP); type: in vivo, C. elegans; settings: 1 μM icas#3
From the text: Transgenic lines that express the genetically encoded Ca^2+ sensor in ASK (kyEx2866) and AIA (kyEx2916) (Macosko et al., Nature 458:1171-75 (2009), which is hereby incorporated by reference in its entirety) were used for calcium imaging. Young adults or adult worms were inserted into an “Olfactory chip” microfluidic device (Chronis et al., Nat. Methods 4:727-31 (2007), which is hereby incorporated by reference in its entirety). Dilutions of icas#3 were done with S-basal buffer (with no cholesterol). As stock solutions of icas#3 contained small amounts of ethanol, equivalent amounts of ethanol were added to the S-basal control flow.
Imaging was conducted using an inverted Zeiss microscope equipped with an Andor camera. Exposure time for image acquisition was 300 milliseconds. Before imaging the ASK neuron, the worm was exposed to blue light for 3 minutes as ASK responds to the blue light itself. […] Movies were analyzed using custom-made Matlab scripts. The first peak of fluorescence immediately after exposure to buffer or icas#3 was chosen for calculating the average change in fluorescence upon exposure to either buffer or icas#3. The value for this maximum was then subtracted from the mean fluorescence during the 5 seconds before the delivery of icas#3/buffer (corresponding to the region between 5 to 10 seconds in FIG. 2D).

For `C[C@@H]1O[C@@H](OCCC(=O)O)[C@H](O)C[C@H]1O` [ascr#5], the “Promote Dauer Formation” value (C. elegans [1]) is listed as “ascr#5 ([strong])”, the “Repel Females/Herm.” value (C. elegans [1]) is listed as “ascr#5” and the “calcium transients in the ASI sensory neurons” value (ASI sensory neurons) is listed as “does not elicit calcium transients”.

With `C[C@H](CCCC/C=C/C(=O)O)O[C@@H]1O[C@@H](C)[C@H](OC(=O)c2c[nH]c3ccccc23)C[C@H]1O` [icas#3] the “attraction in spot attraction assay” value (C. elegans [2]; 1 pmol (high concentrations), N2 hermaphrodites and him-5 males) was “attractive to both C. elegans sexes; also recorded: attracted both males and hermaphrodites”, the “attraction after ablation of ASI neurons” value (C. elegans [2]; ASI-ablated hermaphrodites) was “no significant effect” and the “attraction after ablation of ASK sensory neurons” value (C. elegans [2]; ASK-ablated hermaphrodites) was “near complete loss of attraction”. The “attraction of daf-22 hermaphrodites” value (C. elegans [2]; daf-22 mutant) was “attracted; also recorded: as strongly as N2 worms”, the “attraction of AIA-deficient worms” value (C. elegans [2]; hyperactive MEC-4 in AIA interneuron) was “did not show any attraction” and the attraction of hermaphrodites (C. elegans [2]; low concentrations, N2 hermaphrodites) was “strongly attractive to hermaphrodites”. For the same molecule, the attraction of males (C. elegans [2]; low concentrations, males) was “no longer attracted”, the “attraction of npr-1(ad609) hermaphrodites” value (C. elegans [2]; npr-1(ad609) mutant) was “strongly attracted” and the “attraction of social wild-type hermaphrodites” value (C. elegans [2]; strains RC301 and CB4856) was “strongly attracted”. For the same molecule, the “response after ablation of RMG interneuron” value (C. elegans [2]; wild-type and ncs-1::gfp worms, RMG ablated) was “did not affect icas#3 response”, the “chemotaxis of hermaphrodites from all tested strains” value (C. elegans [3]; after 15 minutes, 10 nM of each ascr#2,3,5) was “attracted” and the “chemotaxis of hermaphrodites from all tested strains” value (C. elegans [3]; after 30 minutes, 10 nM ascr#2,3,5) was “attracted”. The “response of daf-22 hermaphrodites” value (C. elegans [3]; daf-22 mutant) was “as strongly as N2 worms”, the “concentration as low as which resulted in strong attraction of hermaphrodites” value (C. elegans [3]; in the presence and absence of food) was 1 pM and the “chemotaxis of npr-1(ad609) hermaphrodites” value (C. elegans [3]; npr-1(ad609) mutant) was “strongly attracted”. For the same molecule, the “chemotaxis of social wild-type hermaphrodites” value (C. elegans [3]; strains RC301 and CB4856) was “strongly attracted”, the “aggregation of CB4856” value (C. elegans [4]; 1 nM of icas#3) was “not significantly different from the control” and the “aggregation of hermaphrodites lacking the ASK neurons” value (C. elegans [4]; any of the tested concentrations) was “did not aggregate”. The “aggregation of daf-22 hermaphrodites” value (C. elegans [4]; compared with N2) was “less aggregation than N2 worms at 1 pM icas#3 but not at 10 pM icas#3”, the “aggregation of solitary and social hermaphrodites” value (C. elegans [4]; constant background concentration) was “strongly increased the propensity” and the “aggregation of npr-1(ad609) hermaphrodites” value (C. elegans [4]; entire tested concentration range, no drop off) was “increased aggregation”. The “aggregation of him-5 males” value (C. elegans [4]; icas#3 plates) was “significantly increased”, the “concentration window for hermaphrodite attraction and aggregation” value (C. elegans [4]; in vivo) was “femtomolar to low picomolar” and the “concentration as low as which gave a very strong increase in aggregation” value (C. elegans [4]; low worm density, solitary and social hermaphrodites) was 10 fM. The worm velocity (C. elegans [5]; 1-10 pM icas#3) was “not significantly reduced”, the mean stopped duration (C. elegans [5]; aggregation-inducing concentrations, N2 hermaphrodites) was “strongly increase” and the “reversal frequency and velocity of ASK-ablated hermaphrodites” value (C. elegans [5]; icas#3 plates) was “neither increased reversal frequency nor decreased velocity”. For the same molecule, the “G-CaMP fluorescence in the AIA neurons” value (AIA interneurons) was “significantly increased G-CaMP fluorescence”, the “Attract Females/Herm.” value (C. elegans [1]) was “icas#3 ([strong])” and the “Attract Males” value (C. elegans [1]) was “icas#3 ([strong])”.
